Measured values reported in US20240192195A1, “A MULTIOMIC APPROACH TO MODELING OF GENE REGULATORY NETWORKS IN MULTIPLE MYELOMA” (H. LEE MOFFITT CANCER CENTER AND RESEARCH INSTITUTE, INC., priority 2021, published 2024).

Test system: multiple myeloma
Assay: Clinical response to Selinexor-based regimens after anti-CD38 monoclonal antibody in the immediate prior line (STOMP, XPORT-MM-028)
Format: in vivo, human
Conditions: Selinexor-based regimen

Q: For O=C(/C=C\n1cnc(-c2cc(C(F)(F)F)cc(C(F)(F)F)c2)n1)NNc1cnccn1 [Selinexor], which “PFS, anti-CD38 mAb in immediate prior line versus not” value (STOMP and XPORT-MM-028 trials) is on record?
A: statistically significant improvement

Q: What about the “VGPR rate, anti-CD38 mAb in immediate prior line versus not” value (STOMP trial (xpd and xkd arms)) of the same molecule?
A: higher

Q: What about the “ORR and CBR, anti-CD38 mAb in immediate prior line versus not” value (XPORT-MM-028 trial (xvd)) of the same molecule?
A: considerably higher
